Sander's compilation of Henry's law constants
Each block holds one molecule with its values, some of them ahead of it.

Assay: Henry solubility constant Hcp at 298.15 K (mol/(m3 Pa))
[1] = reference: Charles and Destaillats (2005)
[2] = reference: Murphy et al. (1983a)
[3] = reference: Buttery et al. (1971)
[4] = reference: Copolovici and Niinemets (2005)
[5] = reference: Schuhfried et al. (2015)
[6] = reference: Snider and Dawson (1985)
[7] = reference: Butler et al. (1935)
[8] = reference: Fichan et al. (1999)
[9] = reference: Bowden et al. (1998a)
[10] = reference: Dohnal and Fenclová (1995)
[11] = reference: Feigenbrugel et al. (2004b)
[12] = reference: Scharlin and Battino (1994)
[13] = reference: Scharlin and Battino (1995)
[14] = reference: Mabury and Crosby (1996)
[15] = reference: Kawamoto and Urano (1989)

- Henry solubility constant Hcp (reference: Alaee et al. (1996)): 0.2
- Henry solubility constant Hcp (reference: Bamford et al. (1999b)): 0.15
- Henry solubility constant Hcp (reference: Reza and Trejo (2004)): 0.23
- Henry solubility constant Hcp (reference: Southworth (1979)): 0.15
- Henry solubility constant Hcp (reference: Webster et al. (1985)): 0.27
SMILES: c1ccc2cc3ccccc3cc2c1 [anthracene]

- Henry solubility constant Hcp [3]: 0.67
SMILES: CCc1nccnc1OC [2-ethyl-3-methoxypyrazine]

- Henry solubility constant Hcp (reference: Wieland et al. (2015)): 2.9
SMILES: CCc1ncc(C)nc1C [2-ethyl-3,5-dimethylpyrazine]

- Henry solubility constant Hcp (reference: Xu and Kropscott (2014)): 0.07
SMILES: C[Si](C)(C)O [trimethylsilanol]

- Henry solubility constant Hcp [7]: 0.78
- Henry solubility constant Hcp (reference: Gupta et al. (2000)): 0.95
- Henry solubility constant Hcp (reference: Lei et al. (2007)): 0.75
- Henry solubility constant Hcp (reference: Shunthirasingham et al. (2013)): 0.81
SMILES: CCCCCO [1-pentanol]

- Henry solubility constant Hcp [5]: 8.1e-06
SMILES: C=C/C(C)=C/C/C=C(\C)CCC=C(C)C [α-farnesene]

- Henry solubility constant Hcp [2]: 0.0045
SMILES: Clc1ccc(-c2c(Cl)c(Cl)cc(Cl)c2Cl)c(Cl)c1Cl [2,2',3,3',4,5',6'-heptachlorobiphenyl]

- Henry solubility constant Hcp [8]: 0.00087
- Henry solubility constant Hcp [5]: 0.00036
SMILES: C=CC(=C)CCC=C(C)C [7-methyl-3-methylene-1,6-octadiene]

- Henry solubility constant Hcp (reference: Ioffe et al. (1984)): 0.052
SMILES: CCC(=O)OC [methyl propanoate]

- Henry solubility constant Hcp [10]: 12
- Henry solubility constant Hcp [11]: 7.9
SMILES: Cc1cccc(O)c1 [1-hydroxy-3-methylbenzene]

- Henry solubility constant Hcp (reference: Drouillard et al. (1998)): 0.056
SMILES: ClCC(Cl)CCCCCCC(Cl)CCl (configuration not stated) [1,2,9,10-tetrachlorodecane]

- Henry solubility constant Hcp (reference: Haimi et al. (2006)): 0.00077
SMILES: CCOC(C)(C)CC(C)(C)C [2-ethoxy-2,4,4-trimethylpentane]

- Henry solubility constant Hcp [4]: 0.00038
SMILES: CC1=CCC(=C(C)C)CC1 [1-methyl-4-(1-methylethylidene)-cyclohexene]

- Henry solubility constant Hcp [2]: 0.027
SMILES: Clc1ccc(-c2c(Cl)ccc(Cl)c2Cl)cc1Cl [2,3,3',4',6-pentachlorobiphenyl]

- Henry solubility constant Hcp (reference: Bakierowska and Trzeszczyński (2003)): 0.0031
SMILES: C/C=C/CCl [(E)-1-chloro-2-butene]

- Henry solubility constant Hcp [15]: > 8.1
SMILES: O=[N+]([O-])c1ccc(Oc2c(Cl)cc(Cl)cc2Cl)cc1 [2,4,6-trichlorophenyl 4-nitrophenyl ether]

- Henry solubility constant Hcp [10]: 13
- Henry solubility constant Hcp [11]: 10
- Henry solubility constant Hcp (reference: Parsons et al. (1972)): 13
SMILES: Cc1ccc(O)cc1 [1-hydroxy-4-methylbenzene]

- Henry solubility constant Hcp [3]: 1
SMILES: C/C=C/C=C/C=O [(E,E)-2,4-hexadienal]

- Henry solubility constant Hcp (reference: Goss et al. (2006)): 0.0015
- Henry solubility constant Hcp (reference: Lei et al. (2004)): 8.5e-05
- Henry solubility constant Hcp (reference: Wu and Chang (2011)): 0.00017
SMILES: OCCC(F)(F)C(F)(F)C(F)(F)C(F)(F)C(F)(F)C(F)(F)F [1H,1H,2H,2H-perfluoro-1-octanol]

- Henry solubility constant Hcp (reference: Aprea et al. (2007)): 0.037
- Henry solubility constant Hcp (reference: Ioffe et al. (1984)): 0.036
SMILES: CCCC(=O)OC [methyl butanoate]

- Henry solubility constant Hcp (reference: Olson (1998)): 300
SMILES: O=CCCCC=O [pentanedial]

- Henry solubility constant Hcp (reference: Rochester and Symonds (1973)): 0.24
SMILES: OC(C(F)(F)F)C(F)(F)F [1,1,1,3,3,3-hexafluoro-2-propanol]

- Henry solubility constant Hcp (reference: Nguyen (2013)): 700
SMILES: CC(C)(N)CO [2-amino-2-methyl-1-propanol]

- Henry solubility constant Hcp [8]: 1.2
SMILES: CC(=O)/C=C/C1=C(C)CCCC1(C)C [β-ionone]

- Henry solubility constant Hcp [8]: 0.056
SMILES: C=C(C)C1CCC2(C)OC2C1 (configuration not stated) [limonene oxide]

- Henry solubility constant Hcp (reference: Bissonette et al. (1990)): 0.0029
SMILES: C=Cc1ccccc1 [ethenylbenzene]

- Henry solubility constant Hcp (reference: Katrib et al. (2003)): 30
SMILES: COC(=O)CCC(=O)OC [butanedioic acid, dimethyl ester]

Further lines, the molecule ahead of its results:

SMILES: Clc1ccc(-c2cc(Cl)c(Cl)cc2Cl)cc1Cl [2,3',4,4',5-pentachlorobiphenyl]
- Henry solubility constant Hcp [1]: 0.018
- Henry solubility constant Hcp [2]: 0.025

SMILES: COC(=O)OC [carbonic acid, dimethyl ester]
- Henry solubility constant Hcp (reference: Böhme et al. (2008)): 0.16

SMILES: C=C(C)[C@@H]1CC=C(C)CC1 [(S)-1-methyl-4-(1-methylethenyl)-cyclohexene]
- Henry solubility constant Hcp [4]: 0.00035
- Henry solubility constant Hcp [5]: 0.00037

SMILES: O=[N+]([O-])c1ccccc1O [2-nitrophenol]
- Henry solubility constant Hcp (reference: Guo and Brimblecombe (2007)): 1.4
- Henry solubility constant Hcp (reference: Harrison et al. (2002)): 0.83
- Henry solubility constant Hcp (reference: Müller and Heal (2001)): 0.89

SMILES: FC(F)F [trifluoromethane]
- Henry solubility constant Hcp (reference: Maaßen (1995)): 0.00012
- Henry solubility constant Hcp (reference: Miguel et al. (2000)): 0.00021
- Henry solubility constant Hcp (reference: Zheng et al. (1997)): 0.00013

SMILES: C=CC=O [propenal]
- Henry solubility constant Hcp [6]: 0.072

SMILES: Cc1cc(C)c(N)cc1C [2,4,5-trimethylbenzenamine]
- Henry solubility constant Hcp (reference: Jayasinghe et al. (1992)): 3.9

SMILES: Clc1ccc(Cl)c(-c2cc(Cl)ccc2Cl)c1 [2,2',5,5'-tetrachlorobiphenyl]
- Henry solubility constant Hcp [2]: 0.045

SMILES: O=C(O)CBr [bromoethanoic acid]
- Henry solubility constant Hcp [9]: 1500

SMILES: Cc1cccnc1 [3-methylpyridine]
- Henry solubility constant Hcp (reference: Chaintreau et al. (1995)): 0.42

SMILES: Brc1ccc(Oc2ccc(Br)cc2)cc1 [4,4'-dibromodiphenyl ether]
- Henry solubility constant Hcp [1]: 0.073

SMILES: CN(Cl)Cl [N,N-dichloromethylamine]
- Henry solubility constant Hcp (reference: Cimetiere and de Laat (2009)): 0.0033

SMILES: ClC(Cl)(Cl)C(Cl)(Cl)Cl [hexachloroethane]
- Henry solubility constant Hcp (reference: Munz and Roberts (1986)): 0.0034
- Henry solubility constant Hcp (reference: Munz and Roberts (1987)): 0.0025
- Henry solubility constant Hcp (reference: Warner et al. (1980)): 0.001

SMILES: Brc1ccc(Br)cc1 [1,4-dibromobenzene]
- Henry solubility constant Hcp (reference: Kuramochi et al. (2004)): 0.0094

SMILES: FC(F)(F)Cl [chlorotrifluoromethane]
- Henry solubility constant Hcp (reference: Park et al. (1982)): 7.8e-06
- Henry solubility constant Hcp (reference: Reichl (1995)): 8.9e-06
- Henry solubility constant Hcp [12]: 9e-06
- Henry solubility constant Hcp [13]: 9e-06

SMILES: CN(C)c1nc(=O)n(C2CCCCC2)c(=O)n1C [hexazinone]
- Henry solubility constant Hcp [14]: > 99

SMILES: CCOC(=O)C(F)(F)F [trifluoroethanoic acid, ethyl ester]
- Henry solubility constant Hcp (reference: Kutsuna and Kaneyasu (2021)): 0.00071
- Henry solubility constant Hcp (reference: Kutsuna et al. (2005)): 0.00089

SMILES: CS(C)=O [dimethylsulfoxide]
- Henry solubility constant Hcp (reference: Lee and Zhou (1994)): > 9900
- Henry solubility constant Hcp (reference: Watts and Brimblecombe (1987)): 940

SMILES: CCN(CC)N=O [N-nitrosodiethylamine]
- Henry solubility constant Hcp (reference: Klein (1982)): 5.6
- Henry solubility constant Hcp (reference: Thompson et al. (2018)): 0.012

SMILES: ClC1(Cl)C2(Cl)C3(Cl)C4(Cl)C(Cl)(Cl)C5(Cl)C3(Cl)C1(Cl)C5(Cl)C24Cl (configuration not stated) [mirex]
- Henry solubility constant Hcp (reference: Yin and Hassett (1986)): 0.012

SMILES: CC(CCl)OC(C)CCl (configuration not stated) [bis-(2-chloroisopropyl) ether]
- Henry solubility constant Hcp [15]: 0.42

SMILES: O=C(O)C(Cl)Cl [dichloroethanoic acid]
- Henry solubility constant Hcp [9]: 1200

SMILES: Cc1cc(Cl)ccc1OCC(=O)O [(2-methyl-4-chlorophenoxy)acetic acid]
- Henry solubility constant Hcp [14]: > 99

SMILES: FC(F)(F)CCl [2-chloro-1,1,1-trifluoroethane]
- Henry solubility constant Hcp (reference: Maaßen (1995)): 0.00037
- Henry solubility constant Hcp (reference: Reichl (1995)): 0.00041

SMILES: CCO [ethanol]
- Henry solubility constant Hcp (reference: Burnett (1963)): 2.1
- Henry solubility constant Hcp [7]: 1.9
- Henry solubility constant Hcp (reference: Gupta et al. (2000)): 1.8
- Henry solubility constant Hcp (reference: Harger et al. (1950)): 1.9
- Henry solubility constant Hcp (reference: Jones (1983)): 1.9
- Henry solubility constant Hcp (reference: Park et al. (1987)): 1.9
- Henry solubility constant Hcp (reference: Pividal et al. (1992)): 3.1
- Henry solubility constant Hcp (reference: Richon et al. (1985)): 2
- Henry solubility constant Hcp (reference: Rohrschneider (1973)): 2.3
- Henry solubility constant Hcp [6]: 1.9
- Henry solubility constant Hcp (reference: Straver and de Loos (2005)): 1.9
- Henry solubility constant Hcp (reference: Ueberfeld et al. (2001)): 1.1
- Henry solubility constant Hcp (reference: Vitenberg and Dobryakov (2008)): 1.8
- Henry solubility constant Hcp (reference: Willey et al. (2017)): 1.8

SMILES: S=C=S [carbon disulfide]
- Henry solubility constant Hcp (reference: De Bruyn et al. (1995b)): 0.00054
- Henry solubility constant Hcp (reference: Elliott (1989)): 0.00062

SMILES: CC(=O)OCC(F)(F)F [2,2,2-trifluoroethyl ethanoate]
- Henry solubility constant Hcp (reference: Kutsuna et al. (2004)): 0.0057

SMILES: Clc1ccc(-c2cc(Cl)c(Cl)c(Cl)c2Cl)c(Cl)c1 [2,2',3,4,4',5-hexachlorobiphenyl]
- Henry solubility constant Hcp [2]: 0.021

SMILES: Clc1cccc(-c2ccc(Cl)cc2Cl)c1 [2,3',4-trichlorobiphenyl]
- Henry solubility constant Hcp [2]: 0.062

SMILES: FC(F)(F)F [tetrafluoromethane]
- Henry solubility constant Hcp (reference: Ashton et al. (1968)): 2.1e-06
- Henry solubility constant Hcp (reference: Cosgrove and Walkley (1981)): 2.1e-06
- Henry solubility constant Hcp (reference: Morrison and Johnstone (1954)): 2e-06
- Henry solubility constant Hcp (reference: Park et al. (1982)): 2.1e-06
- Henry solubility constant Hcp (reference: Reichl (1995)): 2e-06
- Henry solubility constant Hcp [12]: 2.1e-06
- Henry solubility constant Hcp [13]: 2.1e-06
- Henry solubility constant Hcp (reference: Wen and Muccitelli (1979)): 2e-06

SMILES: O=NO [nitrous acid]
- Henry solubility constant Hcp (reference: Becker et al. (1996)): 0.47
- Henry solubility constant Hcp (reference: Becker et al. (1998)): 0.47
- Henry solubility constant Hcp (reference: Komiyama and Inoue (1978)): 0.37
- Henry solubility constant Hcp (reference: Park and Lee (1988)): 0.48

SMILES: CC(C)CS [2-methyl-1-propanethiol]
- Henry solubility constant Hcp (reference: Zin et al. (2016)): 0.001
